Reference: paper PMC10584170, “Machine learning-based phenotypic imaging to characterise the targetable biology of Plasmodium falciparum male gametocytes for the development of transmission-blocking antimalarials” (PLOS Pathogens, 2023)
Read-outs that look alike come from different tables or passages of the source.

Columns and labels:
[1] = tested on: P. falciparum male gametocytes; assay: P. falciparum Dual Gamete Formation Assay (PfDGFA), male readout (exflagellation); assay type: cell-based, Plasmodium falciparum NF54; conditions: for % inhibition male (individual replicates) R3: replicate R3; for IC50: PfDGFA, 24 h incubation with gametocytes before induction, exflagellation readout, read-out: Male IC50
Protocol: (§1) P. falciparum NF54 (originally isolated from an imported malaria case in the Netherlands in the 1980s; BEI Resources, cat. No. MRA-1000) strain asexual parasites were maintained between 0.3–5% parasitaemia by regular passage in complete culture medium (RPMI supplemented with 25 mM HEPES, 50 μg ml^−1 hypoxanthine, 4.8 g l^−1 NaHCO3, 2mM L-glutamine, 5% pooled type AB serum, 0.5% Albumax II (Gibco)) at 4% haematocrit in washed whole blood (National Blood and Transfusion Service or Centro de Transfusiones de la Comunidad de Madrid CTCM) under a 1% O2/3% CO2/96% N2 environment. Gametocytes were induced by seeding culture flasks at 2% parasitaemia/4% haematocrit and subjecting them to daily medium changes for 14 days whilst maintaining a temperature of 37°C at all times. On Day 14, the maturity of gametocytes was assessed by quantifying male gametogenesis (exflagellation). A 20 μl sample of gametocyte culture was mixed with equal volume of ookinete medium (complete culture medium supplemented with 0.1 μM xanthurenic acid) at room temperature and transferred to a haemocytometer. After 20 min at room temperature, exflagellation was accurately quantified as described in Delves et al. 2016 [17].
(§2) The Pf DGFA was performed as described in Delves et al. 2016 [17]. […] Plates were then incubated for 24 h at 37°C in a humidified box under a 1% O2/3% CO2/96% N2 gas mix. Gametogenesis was triggered by addition of 10 μl per well of ookinete medium + 0.27 μg ml^-1 Cy3-labelled anti-Pfs25 antibody. Plates were incubated on a metal block at 4°C for 4 min to ensure even cooling, then 28°C for a further 4 min. Exflagellation was recorded by capturing 10 frames over 1 s under brightfield illumination using a x4 objective with a 1.5x zoom (effectively x6) attached to an automated Nikon Ti fluorescence microscope. After recording exflagellation, plates were incubated for a further 24 h in the dark at 28°C to ensure maximal expression of Pfs25 by female gametes. The plates were then returned to the microscope and female gametes imaged at x6 using fluorescence microscopy.
(§3) Exflagellation centres and female gametes were quantified using custom image analysis pipelines developed within ICY Bioimage Analysis (https://icy.bioimageanalysis.org/).

[2] = tested on: P. falciparum female gametocytes; assay: P. falciparum Dual Gamete Formation Assay (PfDGFA), female readout (Pfs25-positive female gametes); assay type: cell-based, Plasmodium falciparum NF54; conditions: for IC50: PfDGFA, 24 h incubation with gametocytes before induction, female gamete readout, read-out: Female IC50
Protocol: as §1, §2, §3

[3] = 2µM, 24h preincubation with gametocytes prior to induction of gametogenesis, average of replicates
[4] = 2µM, 24h preincubation with gametocytes prior to induction of gametogenesis, replicate R1
[5] = 2µM, 24h preincubation with gametocytes prior to induction of gametogenesis
[6] = 2µM, 24h preincubation with gametocytes prior to induction of gametogenesis, replicate R4
[7] = 2µM, 24h preincubation with gametocytes prior to induction of gametogenesis, replicate R3
[8] = PfDGFA at 2µM, 24h preincubation with gametocytes prior to induction of gametogenesis, replicate R1
[9] = PfDGFA at 2µM, 24h preincubation with gametocytes prior to induction of gametogenesis
[10] = PfDGFA at 2µM, 24h preincubation with gametocytes prior to induction of gametogenesis, replicate R4
[11] = PfDGFA at 2µM, 24h preincubation, average of replicates
[12] = PfDGFA at 2µM, 24h preincubation with gametocytes prior to induction of gametogenesis, replicate R3
[13] = number of replicates with >50% inhibition in the male readout, 2µM
[14] = number of replicates with >50% inhibition in the female readout, 2µM
[15] = PfDGFA at 2µM, 24h preincubation with gametocytes, average of replicates
[16] = PfDGFA at 2µM, 24h preincubation with gametocytes, replicate R1
[17] = PfDGFA at 2µM, 24h preincubation with gametocytes, replicate R4
[18] = 2µM, 24h preincubation with gametocytes, average of replicates
[19] = 2µM, 24h preincubation with gametocytes, replicate R1
[20] = 2µM, 24h preincubation with gametocytes, replicate R4

CC1(C)N=C(N)N=C(N)N1c1ccc(Br)cc1.Cl [TCMDC-123959]
Average inhibition male (%) [1, 3]: -8.5%
% inhibition male (individual replicates) R1 [1, 4]: 15.3%
% inhibition male (individual replicates) R3 [1, 5]: 4.6%
% inhibition male (individual replicates) R4 [1, 6]: -63.1%
HitlevelM ([1]; 2µM, 24h preincubation, number of replicates with >50% inhibition in the male readout): 0
Average inhibition female (%) [2, 3]: 18.2%
% inhibition female (individual replicates) R1 [2, 4]: 15.6%
% inhibition female (individual replicates) R3 [2, 7]: 12.6%
% inhibition female (individual replicates) R4 [2, 6]: 26.1%
HitlevelF ([2]; 2µM, 24h preincubation, number of replicates with >50% inhibition in the female readout): 0

CC1(C)N=C(N)N=C(N)N1c1cccc(Cl)c1.Cl [TCMDC-123960]
% inhibition male (individual replicates) R1 [1, 8]: 4.7%
% inhibition male (individual replicates) R3 [1, 9]: -1.4%
% inhibition male (individual replicates) R4 [1, 10]: -9.8%
Average inhibition male (%) [1, 11]: 3.0%
% inhibition female (individual replicates) R1 [2, 8]: 5.3%
% inhibition female (individual replicates) R3 [2, 12]: -21.5%
% inhibition female (individual replicates) R4 [2, 10]: 5.4%
Average inhibition female (%) [2, 11]: -0.8%

Br.C[C@@H](COc1ccc(-c2ccccc2)cc1)CON1C(N)=NC(N)=NC1(C)C [TCMDC-124029]
Average inhibition male (%) [1, 3]: 12.1%
% inhibition male (individual replicates) R1 [1, 4]: 13.7%
% inhibition male (individual replicates) R3 [1, 5]: -5.2%
% inhibition male (individual replicates) R4 [1, 6]: 7.3%
HitlevelM ([1]; 2µM, 24h preincubation, hits selected on >50% inhibition in the male readout across replicates): 0
Activity ([1]; PfDGFA at 2µM, 24h preincubation, hit = >50% inhibition in male or female readout in at least 3 replicates, 0 = no class assigned): 0
Average inhibition female (%) [2, 3]: 5.2%
% inhibition female (individual replicates) R1 [2, 4]: -6.6%
% inhibition female (individual replicates) R3 [2, 7]: 32.8%
% inhibition female (individual replicates) R4 [2, 6]: -1.3%
HitlevelF ([2]; 2µM, 24h preincubation, hits selected on >50% inhibition in the female readout across replicates): 0

Br.CC(C)(C)c1ccc(Cn2c(=N)n(CC(=O)c3ccc(-c4ccccc4)cc3)c3ccccc32)cc1 [TCMDC-124030]
% inhibition male (individual replicates) R1 [1, 8]: -15.4%
% inhibition male (individual replicates) R3 [1, 9]: -16.6%
% inhibition male (individual replicates) R4 [1, 10]: -3.3%
Average inhibition male (%) [1, 11]: -8.2%
% inhibition female (individual replicates) R1 [2, 8]: -3.8%
% inhibition female (individual replicates) R3 [2, 12]: -20.2%
% inhibition female (individual replicates) R4 [2, 10]: -0.7%
Average inhibition female (%) [2, 11]: -8.6%

O=C(Nc1ccc([N+](=O)[O-])cc1)c1nn(-c2ccccc2)cc1/N=C/c1cccc(O)c1 [TCMDC-124108]
% inhibition male (individual replicates) R1 [1, 8]: -5.9%
% inhibition male (individual replicates) R3 [1, 9]: -27.6%
% inhibition male (individual replicates) R4 [1, 10]: -9.8%
Average inhibition male (%) [1, 11]: -10.2%
% inhibition female (individual replicates) R1 [2, 8]: 7.8%
% inhibition female (individual replicates) R3 [2, 12]: -29.5%
% inhibition female (individual replicates) R4 [2, 10]: -3.2%
Average inhibition female (%) [2, 11]: -2.4%

c1ccc2[nH]c(CN(Cc3nc4ccccc4[nH]3)Cc3nc4ccccc4[nH]3)nc2c1 [TCMDC-124132]
Selectivity Ratio M ([1]; HepG2 Tox50 versus male IC50): 14.81
inhibition at 2 µM ([1]; Plasmodium falciparum, PfDGFA at 2µM, 24h preincubation with gametocytes, average of replicates, read-out: Average inhibition male (%)): 78.3%
inhibition at 2 µM ([1]; Plasmodium falciparum, PfDGFA at 2µM, 24h preincubation with gametocytes, replicate R1, read-out: % inhibition male (individual replicates) R1): 68.8%
inhibition at 2 µM ([1]; Plasmodium falciparum, PfDGFA at 2µM, 24h preincubation with gametocytes, replicate R2, read-out: % inhibition male (individual replicates) R2): 80.9%
inhibition at 2 µM ([1]; Plasmodium falciparum, PfDGFA at 2µM, 24h preincubation with gametocytes, replicate R4, read-out: % inhibition male (individual replicates) R4): 85.2%
IC50 ([1]; Plasmodium falciparum): 6750 nM
HitlevelM [1, 13]: 3
Selectivity ratio F ([2]; HepG2 Tox50 versus female IC50): 10.00
inhibition at 2 µM ([2]; Plasmodium falciparum, PfDGFA at 2µM, 24h preincubation with gametocytes, average of replicates, read-out: Average inhibition female (%)): 5%
inhibition at 2 µM ([2]; Plasmodium falciparum, PfDGFA at 2µM, 24h preincubation with gametocytes, replicate R1, read-out: % inhibition female (individual replicates) R1): 1.1%
inhibition at 2 µM ([2]; Plasmodium falciparum, PfDGFA at 2µM, 24h preincubation with gametocytes, replicate R2, read-out: % inhibition female (individual replicates) R2): -7.6%
inhibition at 2 µM ([2]; Plasmodium falciparum, PfDGFA at 2µM, 24h preincubation with gametocytes, replicate R3, read-out: % inhibition female (individual replicates) R3): 23.9%
inhibition at 2 µM ([2]; Plasmodium falciparum, PfDGFA at 2µM, 24h preincubation with gametocytes, replicate R4, read-out: % inhibition female (individual replicates) R4): 2.5%
IC50 ([2]; Plasmodium falciparum): > 10000 nM
HitlevelF [2, 14]: 0

COc1ccc(N2C(N)=NC(N)=NC2(C)C)cc1.Cl [TCMDC-124269]
% inhibition male (individual replicates) R1 [1, 8]: 22.5%
% inhibition male (individual replicates) R3 [1, 9]: 4.0%
% inhibition male (individual replicates) R4 [1, 10]: -9.1%
Average inhibition male (%) [1, 11]: 11.6%
% inhibition female (individual replicates) R1 [2, 8]: 13.5%
% inhibition female (individual replicates) R3 [2, 12]: -15.3%
% inhibition female (individual replicates) R4 [2, 10]: 10.3%
Average inhibition female (%) [2, 11]: 1.7%

CC(=NNC(=S)NCCc1ccccc1)c1ccccn1 [TCMDC-124270]
Average inhibition male (%) [1, 15]: 63.1%
% inhibition male (individual replicates) R1 [1, 16]: 70.1%
% inhibition male (individual replicates) R3 ([1]; PfDGFA at 2µM, 24h preincubation with gametocytes): 69.5%
% inhibition male (individual replicates) R4 [1, 17]: 18.9%
IC50 [1]: 640 nM
HitlevelM [1, 13]: 3
Average inhibition female (%) [2, 15]: 36.2%
% inhibition female (individual replicates) R1 [2, 16]: 25.2%
% inhibition female (individual replicates) R3 ([2]; PfDGFA at 2µM, 24h preincubation with gametocytes, replicate R3): 20.9%
% inhibition female (individual replicates) R4 [2, 17]: 55.8%
IC50 [2]: 530 nM
HitlevelF [2, 14]: 1

CC(C)(c1ccccc1)c1ccc(O)c(CN2CCOCC2)c1 [TCMDC-124276]
% inhibition male (individual replicates) R1 [1, 8]: 1.1%
% inhibition male (individual replicates) R4 [1, 10]: -1.8%
Average inhibition male (%) [1, 11]: 10.2%
% inhibition female (individual replicates) R1 [2, 8]: 0.5%
% inhibition female (individual replicates) R3 [2, 12]: 8.1%
% inhibition female (individual replicates) R4 [2, 10]: -2.3%
Average inhibition female (%) [2, 11]: -2.0%

CC(=NNC(=S)Nc1ccccc1Cl)c1ccccn1 [TCMDC-124278]
Average inhibition male (%) [1, 18]: 101.3%
% inhibition male (individual replicates) R1 [1, 19]: 101.8%
% inhibition male (individual replicates) R3 ([1]; 2µM, 24h preincubation with gametocytes): 99.8%
% inhibition male (individual replicates) R4 [1, 20]: 103.6%
IC50 [1]: 110 nM
Average inhibition female (%) [2, 18]: 61.5%
% inhibition female (individual replicates) R1 [2, 19]: 40.0%
% inhibition female (individual replicates) R3 ([2]; 2µM, 24h preincubation with gametocytes, replicate R3): 55.6%
% inhibition female (individual replicates) R4 [2, 20]: 74.7%
IC50 [2]: 300 nM
